Laboratory results published in publication PMC10180076, “Novel Biologically Active N-Substituted Benzimidazole Derived Schiff Bases: Design, Synthesis, and Biological Evaluation” (Molecules, 2023).
Where two headings read alike, the source gives them in different places.

Key:
[1] = test system: human coronavirus HCoV-229E; assay: organism not typed; assay type: cell-based; settings: HEL 299 cells, 100 CCID50, MTS; read-out: Antiviral Activity (EC50/μM) HCoV 229E HEL 299
[2] = test system: human coronavirus HCoV-NL63; assay: Antiviral CPE reduction assay, HCoV-NL63 in Huh-7; assay type: cell-based; settings: Huh-7 cells, 100 CCID50, MTS
[3] = test system: influenza A/H1N1 (A/Ned/378/05); assay: Antiviral CPE reduction assay, influenza A/H1N1 in MDCK; assay type: cell-based; settings: Influenza A virus, MDCK cells, 100 CCID50, MTS
[4] = test system: influenza A/H3N2 (A/HK/7/87); assay: Antiviral CPE reduction assay, influenza A/H3N2 in MDCK; assay type: cell-based; settings: Influenza A virus, MDCK cells, 100 CCID50, MTS
[5] = test system: influenza B (B/Ned/537/05); assay: Antiviral CPE reduction assay, influenza B in MDCK; assay type: cell-based; settings: Influenza B virus; MDCK cells, 100 CCID50, MTS
[6] = test system: respiratory syncytial virus A (Long); assay: Antiviral CPE reduction assay, RSV A in HEL 299; assay type: cell-based; settings: human respiratory syncytial virus; HEL 299 cells, 100 CCID50, MTS
[7] = test system: yellow fever virus (YFV 17D); assay: microbe, parasite or virus in culture; assay type: cell-based; settings: Huh-7, read-out: Antiviral Activity (EC50/μM) YFV 17D Huh-7
Zika virus (Mr776) = assay: Antiviral CPE reduction assay, Zika virus in Huh-7; assay type: cell-based; settings: Huh-7 cells, 100 CCID50, MTS
sindbis virus = assay: Antiviral CPE reduction assay, Sindbis virus in Huh-7; assay type: cell-based; settings: Huh-7 cells, 100 CCID50, MTS
in vitro [8] = settings: dog
LN-229, glioblastoma = assay: Proliferation assay (MTS, 72 h), LN-229; assay type: cell-based, human
From the text: (§1) Human cancer cells used in this manuscript, namely Capan-1, HCT-116, NCI-H460, LN-229, HL-60, K-562, and Z-138, were acquired from the American Type Culture Collection (ATCC, Manassas, VA, USA), while the DND-41 cell line was purchased from the Deutsche Sammlung von Mikroorganismen und Zellkulturen (DSMZ Leibniz-Institut, Braunschweig, Germany). Culture media were purchased from Gibco Life Technologies, Merelbeke, Belgium, and supplemented with 10% fetal bovine serum (HyClone, Cytiva, Marlborough, MA, USA). Vincristine and docetaxel, which were used as the reference inhibitors, were purchased from Selleckchem (Munich, Germany). Stock solutions were prepared in DMSO.
(§2) Adherent cell lines LN-229, HCT-116, and NCI-H460 and Capan-1 cells were seeded at a density between 500 and 1500 cells per well, in 384-well tissue culture plates (Greiner, Kremsmünster, Austria). After overnight incubation, the cells were treated with seven different concentrations of the test compounds, ranging from 100 to 0.006 µM.
(§3) Suspension cell lines HL-60, K-562, Z-138, and DND-41 were seeded at densities ranging from 2500 to 5500 cells per well in 384-well culture plates containing the test compounds at the same concentration points. The cells were incubated for 72 h with the compounds and were then analyzed using the CellTiter 96® AQueous One Solution Cell Proliferation Assay (MTS) reagent (Promega, Madison, WI, USA) according to the manufacturer’s instructions. […] The compounds were tested in two independent experiments.

[9] = test system: Capan-1, pancreatic adenocarcinoma; assay: Proliferation assay (MTS, 72 h), Capan-1; assay type: cell-based, human
From the text: as §1, §2, §3

[10] = test system: HCT-116, colorectal carcinoma; assay: Proliferation assay (MTS, 72 h), HCT-116; assay type: cell-based, human
From the text: as §1, §2, §3

NCI-H460, lung carcinoma = assay: Proliferation assay (MTS, 72 h), NCI-H460; assay type: cell-based, human
From the text: as §1, §2, §3

[11] = test system: DND-41, acute lymphoblastic leukemia; assay: Proliferation assay (MTS, 72 h), DND-41; assay type: cell-based, human
From the text: as §1, §2, §3

[12] = test system: HL-60, acute myeloid leukemia; assay: Proliferation assay (MTS, 72 h), HL-60; assay type: cell-based, human
From the text: as §1, §2, §3

[13] = test system: K-562, chronic myeloid leukemia; assay: Proliferation assay (MTS, 72 h), K-562; assay type: cell-based, human
From the text: as §1, §2, §3

[14] = test system: Z-138, non-Hodgkin lymphoma; assay: Proliferation assay (MTS, 72 h), Z-138; assay type: cell-based, human
From the text: as §1, §2, §3

[15] = test system: herpes simplex virus-1 (HSV-1 KOS); assay: Antiviral CPE reduction assay, HSV-1 KOS in HEL 299; assay type: cell-based; settings: Human alphaherpesvirus 1; HEL 299 cells, 100 CCID50, MTS
in vitro [16] = settings: human

Row | Molecule | melting point [°C] | IC50 (LN-229, glioblastoma; Homo sapiens, LN-229) [µM] | IC50 ([9]; Homo sapiens, CAPAN-1) [µM] | IC50 ([10]; Homo sapiens, HCT-116) [µM] | IC50 (NCI-H460, lung carcinoma; Homo sapiens, NCI-H460) [µM] | IC50 ([11]; Homo sapiens, DND41) [µM] | IC50 ([12]; Homo sapiens, HL-60) [µM] | IC50 ([13]; Homo sapiens, K562) [µM] | IC50 ([14]; Homo sapiens, Z-138) [µM] | also measured
1 | CCCCCCn1c(N)nc2ccccc21 [Compound 20, 2-amino-1-hexylbenzimidazole] | 245 to 250 | – | – | – | – | – | – | – | – | –
2 | NC(=O)c1ncn([C@@H]2O[C@H](CO)[C@@H](O)[C@H]2O)n1 [Ribavirin, ribavirin, reference compound] | – | – | – | – | – | – | – | – | – | EC50 [1]: 82.6 µM; EC50 [2]: > 250 µM; EC50 [3]: 10.5 µM; EC50 [4]: 4 µM; EC50 [5]: 2.8 µM; EC50 [6]: 10.8 µM; EC50 [7]: > 250 µM; EC50 (Zika virus (Mr776)): > 250 µM; EC50 (sindbis virus): 148 µM; CC50 (in vitro [8]): 67 µM
3 | CC(=O)N[C@H]1[C@H]([C@H](O)[C@H](O)CO)OC(C(=O)O)=C[C@@H]1N=C(N)N [Zanamivir, zanamivir, reference compound] | – | – | – | – | – | – | – | – | – | EC50 [3]: 0.1 µM; EC50 [4]: 16.8 µM; EC50 [5]: 0.05 µM; CC50 (in vitro [8]): > 100 µM
4 | 2-amino-6-cyano-1-isobutylbenzimidazole [Compound 21] | – | – | – | – | – | – | – | – | – | IC50 (LN-229, glioblastoma): > 100 µM; IC50 [9]: > 100 µM; IC50 [10]: > 100 µM; IC50 (NCI-H460, lung carcinoma): 69.2 µM; IC50 [11]: > 100 µM; IC50 [12]: > 100 µM; IC50 [13]: > 100 µM; IC50 [14]: > 100 µM
5 | CCCCCCn1c(/N=C/c2ccc(N(CC)CC)cc2O)nc2ccccc21 [Compound 44, (E)-5-(Diethylamino)-2-(((1-hexyl-1H-benzo[d]imidazol-2-yl)imino)methyl)phenol] | 201 to 204 | > 100 | > 100 | > 100 | > 100 | > 100 | 83.9 | > 100 | > 100 | –
6 | CCCCCCn1c(/N=C/c2ccc(N(C)C)cc2)nc2ccc(C#N)cc21 [Compound 43, (E)-2-((4-(Dimethylamino)benzylidene)amino)-1-hexyl-1H-benzo[d]imidazole-6-carbonitrile] | 165 to 170 | > 100 | > 100 | > 100 | 91.6 | > 100 | 33.5 | > 100 | > 100 | –
7 | CCCCCCn1c(/N=C/c2ccc(N(CC)CC)cc2O)nc2ccc(C#N)cc21 [Compound 45, (E)-2-((4-(Diethylamino)-2-hydroxybenzylidene)amino)-1-hexyl-1H-benzo[d]imidazole-6-carbonitrile] | – | > 100 | > 100 | > 100 | > 100 | > 100 | > 100 | > 100 | > 100 | –
8 | COc1cc([C@@H]2c3cc4c(cc3[C@@H](O[C@@H]3O[C@@H]5CO[C@@H](C)O[C@H]5[C@H](O)[C@H]3O)[C@H]3COC(=O)[C@H]23)OCO4)cc(OC)c1O [ETP, etoposide, reference compound] | – | 2.4 | 0.43 | 1.45 | 3.65 | 2.8 | 0.42 | 1.77 | 0.85 | –
9 | O=c1[nH]c(=O)n([C@H]2C[C@H](O)[C@@H](CO)O2)cc1/C=C/Br [BVDU, brivudine, reference compound] | – | – | – | – | – | – | – | – | – | EC50 [15]: 0.05 µM; CC50 (in vitro [16]): > 100 µM
10 | CCN(CC)c1ccc(/C=N/c2nc3ccccc3n2C)c(O)c1 [Compound 35, (E)-5-(Diethylamino)-2-(((1-methyl-1H-benzo[d]imidazol-2-yl)imino)methyl)phenol] | – | > 100 | > 100 | > 100 | > 100 | > 100 | > 100 | > 100 | > 100 | –
